Consider 33 compounds from ChEMBL document CHEMBL3352399, “Synthesis of aminoalkyl-substituted aurone derivatives as acetylcholinesterase inhibitors” (Bioorg Med Chem, 2015).

For one data set, the system named is Mus musculus. Description: Reversal of scopolamine-induced memory deficit in ICR mouse assessed as latency time at 2 mg/kg, po administered 30 min before acquisition trial by passive avoidance test (Rvb =271.0 +/- 14.49 seconds). Type of data set: functional.
Conditions: not given
As for `COc1ccc(/C=C2\Oc3cc(OCCN4CCCCC4)ccc3C2=O)cc1OC.Cl`, the Time is listed as 222.4 s.

The subject of another data set is Mus musculus. Description: Reversal of scopolamine-induced memory deficit in ICR mouse assessed as latency time at 1 mg/kg, po administered 30 min before acquisition trial by passive avoidance test (Rvb =271.0 +/- 14.49 seconds).
Conditions: not given
Type of data set: functional.
As for `COc1ccc2c3c1O[C@H]1C[C@@H](O)C=C[C@@]31CCN(C)C2` [GALANTAMINE], the Time worked out at 212.2 s.

For the compound `COc1ccc(/C=C2\Oc3cc(OCCN4CCCCC4)ccc3C2=O)cc1OC.Cl`, the Time was 242.5 s.

In a further data set the target is T1, Acetylcholinesterase (Mus musculus, UniProt P21836).
T1 sequence (P21836 whole entry): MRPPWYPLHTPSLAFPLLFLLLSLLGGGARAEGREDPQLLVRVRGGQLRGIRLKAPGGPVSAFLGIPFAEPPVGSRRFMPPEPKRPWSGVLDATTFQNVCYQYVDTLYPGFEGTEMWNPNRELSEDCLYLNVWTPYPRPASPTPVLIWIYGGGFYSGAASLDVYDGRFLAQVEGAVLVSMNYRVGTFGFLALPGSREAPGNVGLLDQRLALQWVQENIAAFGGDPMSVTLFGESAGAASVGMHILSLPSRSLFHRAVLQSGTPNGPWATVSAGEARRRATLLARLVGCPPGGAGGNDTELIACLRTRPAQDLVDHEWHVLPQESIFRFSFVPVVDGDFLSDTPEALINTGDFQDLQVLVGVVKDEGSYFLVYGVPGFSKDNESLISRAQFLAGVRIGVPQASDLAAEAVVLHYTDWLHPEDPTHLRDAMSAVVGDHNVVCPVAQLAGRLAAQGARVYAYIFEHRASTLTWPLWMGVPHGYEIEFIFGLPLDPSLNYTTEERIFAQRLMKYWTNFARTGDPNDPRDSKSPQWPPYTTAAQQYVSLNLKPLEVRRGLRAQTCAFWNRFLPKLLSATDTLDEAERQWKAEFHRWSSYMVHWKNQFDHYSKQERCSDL
Conditions: not given
`COc1ccc(/C=C2\Oc3cc(OCCCCN4CCCCC4)ccc3C2=O)cc1OC` showed an IC50 of 1520 nM.

`COc1ccccc1/C=C1\Oc2cc(OCCN3CCCC3)ccc2C1=O` came in with a half-maximal inhibitory concentration (IC50) of 2870 nM. This IC50 is about 1.9-fold higher than that of the compound before.

`COc1cccc(/C=C2\Oc3cc(OCCN4CCCCC4)ccc3C2=O)c1` registered a half-maximal inhibitory concentration (IC50) of 1150 nM.

For the compound `COc1cc(/C=C2\Oc3cc(OCCN4CCCC4)ccc3C2=O)cc(OC)c1`, the 50% inhibitory concentration (IC50) worked out at 4810 nM. Compared with the last compound, the IC50 is about 4.2-fold higher.

Turning to `COc1ccc(OC)c(/C=C2\Oc3cc(OCCN4CCCC4)ccc3C2=O)c1`, 1490 nM corresponded to half-maximal inhibition (IC50). This IC50 lies about 3.2-fold lower than the previous one.

Turning to `COc1cccc(/C=C2\Oc3cc(OCCCN4CCCC4)ccc3C2=O)c1`, the 50% inhibitory concentration (IC50) was determined as 4200 nM.

As to `COc1ccc(/C=C2\Oc3cc(OCCN4CCCC4)ccc3C2=O)c(OC)c1`, the concentration for half-maximal inhibition (IC50) is 1610 nM.

With `COc1cccc(/C=C2\Oc3cc(OCCCN4CCCC4)ccc3C2=O)c1OC`, the IC50 is 1050 nM. Compared with the last compound, the IC50 is about 1.5-fold lower.

`COc1cccc(/C=C2\Oc3cc(OCCN4CCCC4)ccc3C2=O)c1OC` gave a half-maximal inhibitory concentration (IC50) of 990 nM.

Take `O=C1/C(=C/c2ccc(O)cc2)Oc2cc(OCCN3CCCC3)ccc21`: it took 11100 nM to reach half-maximal inhibition (IC50). Compared with the last compound, the IC50 is about 11-fold higher.

For the compound `COc1ccc(OC)c(/C=C2\Oc3cc(OCCCN4CCCC4)ccc3C2=O)c1`, the IC50 was 4740 nM.

In the case of `O=C1/C(=C/c2ccc(O)cc2)Oc2cc(OCCN3CCOCC3)ccc21`, 186000 nM corresponded to half-maximal inhibition (IC50).

Consider `COc1cccc(/C=C2\Oc3cc(OCCN4CCCC4)ccc3C2=O)c1`, for which the half-maximal inhibitory concentration (IC50) was 1610 nM. This IC50 is about 120-fold lower than that of the compound before.

The compound `COc1cc(/C=C2\Oc3cc(OCCN4CCCC4)ccc3C2=O)cc(OC)c1OC` had an IC50 of 1560 nM.

As to `O=C1/C(=C/c2ccc(O)c(O)c2)Oc2cc(O)ccc21` [SULFURETIN], the IC50 is 699000 nM.

The compound `COc1ccc(/C=C2\Oc3cc(OCCCN4CCCC4)ccc3C2=O)c(OC)c1` had an IC50 of 1660 nM.

Turning to `COc1ccc(/C=C2\Oc3cc(OCCCCCN4CCCCC4)ccc3C2=O)cc1OC`, the IC50 stood at 1260 nM.

The compound `COc1ccc(/C=C2\Oc3cc(OCCCN4CCCCC4)ccc3C2=O)cc1OC` returned an IC50 of 890 nM.

As for `O=C1/C(=C/c2ccc(O)cc2)Oc2cc(OCCN3CCCCC3)ccc21`, the IC50 turned out to be 13500 nM. This IC50 is about 15-fold higher than that of the compound before.

As for `COc1ccc(/C=C2\Oc3cc(OCCN4CCCC4)ccc3C2=O)c(OC)c1OC`, the IC50 was determined as 13700 nM.

For the compound `COc1ccc(/C=C2\Oc3cc(OCCN4CCCCC4)ccc3C2=O)cc1OC.Cl`, inhibition was half-maximal at 400 nM (IC50).

As for `COc1ccccc1/C=C1\Oc2cc(OCCN3CCCCC3)ccc2C1=O`, the 50% inhibitory concentration (IC50) was found to be 2520 nM. Compared with the last compound, the IC50 is about 6.3-fold higher.

`COc1ccc(/C=C2\Oc3cc(OCCN4CCCC4)ccc3C2=O)cc1OC` came in with an IC50 of 750 nM.

On to `COc1ccc(/C=C2\Oc3cc(OCCCN4CCCC4)ccc3C2=O)cc1OC`, for which inhibition was half-maximal at 1030 nM (IC50).

Compound `COc1cc(/C=C2\Oc3cc(OCCN4CCCCC4)ccc3C2=O)cc(OC)c1OC` registered an IC50 of 1120 nM.

`CCN(CC)CCOc1ccc2c(c1)O/C(=C\c1ccc(O)cc1)C2=O` displayed an IC50 of 35500 nM.

`COc1ccc(/C=C2\Oc3cc(OCCN4CCCC4)ccc3C2=O)cc1` returned a half-maximal inhibitory concentration (IC50) of 2380 nM.

Compound `COc1cccc(/C=C2\Oc3cc(OCCCN4CCCCC4)ccc3C2=O)c1` showed an IC50 of 750 nM. This IC50 lies about 3.2-fold lower than the previous one.

Regarding `COc1cc(/C=C2\Oc3cc(OCCCN4CCCC4)ccc3C2=O)cc(OC)c1`, half-maximal inhibition (IC50) was put at 4630 nM. Compared with the last compound, the IC50 is about 6.2-fold higher.

With `COc1ccc(/C=C2\Oc3cc(OCCCN4CCCC4)ccc3C2=O)cc1`, the IC50 is 3310 nM.

Consider `COc1ccc(/C=C2\Oc3cc(OCCN4CCCCC4)ccc3C2=O)cc1`, for which the IC50 came to 900 nM.

Regarding `COc1ccccc1/C=C1\Oc2cc(OCCCN3CCCC3)ccc2C1=O`, the midpoint of inhibition, the IC50, lay at 5930 nM. This IC50 lies about 6.6-fold higher than the previous one.

Another data set deals with Mus musculus. Description: Toxicity in ICR mouse assessed as behavioral changes measured as latency time during acquisition trial at 0.5 to 5 mg/kg, po administered 30 min before acquisition trial by passive avoidance test. More on the design: dose 0.5-5 mg/kg, route oral. Particulars: in vivo, 0.5 h. In kind it is organism-based.
As for `COc1ccc(/C=C2\Oc3cc(OCCN4CCCCC4)ccc3C2=O)cc1OC.Cl`, the Activity result is recorded as “Non-toxic”.

Another data set concerns Mus musculus. Description: Reversal of scopolamine-induced memory deficit in ICR mouse assessed as latency time at 0.5 mg/kg, ip administered 30 min before acquisition trial by passive avoidance test (Rvb =271.0 +/- 14.49 seconds). Particulars: route intraperitoneal. Type of data set: functional.
Consider `COc1ccc(/C=C2\Oc3cc(OCCN4CCCCC4)ccc3C2=O)cc1OC.Cl`, for which the Time was determined as 88.9 s.

In another data set the test system is Mus musculus. Description: Reversal of scopolamine-induced memory deficit in ICR mouse assessed as latency time at 5 mg/kg, po administered 30 min before acquisition trial by passive avoidance test (Rvb =271.0 +/- 14.49 seconds).
Conditions: not given
Type of data set: functional.
Take `COc1ccc(/C=C2\Oc3cc(OCCN4CCCCC4)ccc3C2=O)cc1OC.Cl`: the Time is given as 206.8 s.

As usually defined, the IC50 is the concentration at which inhibition is half-maximal.
